# Test results reported in article PMC10165273, “Itch receptor MRGPRX4 interacts with the receptor activity–modifying proteins” (The Journal of Biological Chemistry, 2023).
# “And” between values parts separate entries of the source, which are not always exact repeats. Equal entries are not always repeated. Where two headings read alike, the source gives them in different places.
# Key:
# MRGPRX4 + RAMP3 = target: T1, MRGPRX4 + RAMP3 (Homo sapiens, UniProt Q96LA9); test: IP1 accumulation, MRGPRX4 coexpressed with RAMP3; assay type: cell-based; design: key to IP1 Basal / response to agonist, X4:ramp3.I:0.25 / response to agonist, X4:ramp3.I:0.5 / response to agonist, X4:ramp3.I:1: % IP1; unstimulated mock = 0%, fully stimulated MRGPRX4 = 100%; conditions: for EC50: read-out: IP1 EC50; for Emax: read-out: IP1 Emax; for IP1 accumulation (normalized): MRGPRX4+RAMP3 1pg 1:1, Supplementary Figure 5f, 5g
# T1 construct: expressed in transfected cells; host or cells: HEK293T
# T1 sequence (Q96LA9 whole entry): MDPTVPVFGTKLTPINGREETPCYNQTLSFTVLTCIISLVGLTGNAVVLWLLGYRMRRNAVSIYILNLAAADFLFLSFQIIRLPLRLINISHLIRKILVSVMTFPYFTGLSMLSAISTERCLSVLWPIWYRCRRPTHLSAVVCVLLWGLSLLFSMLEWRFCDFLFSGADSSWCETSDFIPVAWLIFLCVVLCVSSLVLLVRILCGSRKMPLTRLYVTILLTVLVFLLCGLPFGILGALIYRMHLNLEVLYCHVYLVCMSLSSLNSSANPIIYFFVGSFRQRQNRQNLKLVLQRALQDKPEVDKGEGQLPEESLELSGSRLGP
# Experimental: HEK293T cells were transfected with 1 pg/cell of MRGPRX4 DNA, and the amount of DNA was kept constant at 2 pg/cell with pcDNA3.1(+) empty vector, unless otherwise specified. Twenty four hours after transfection, IP1 assay was performed as previously described ([51]). When applicable, cells were treated with 1 μM YM254890 (YM) or different concentrations of U73122 for 1 h prior to addition of agonist or buffer. After incubation for 2 h, HTRF reagents and IP1 calibration standards were added and incubated for 2 h in the dark at room temperature. Time-resolved fluorescence signals were read on the BioTek Synergy NEO-TRF Hybrid multi-mode reader (BioTek Instruments). All data were carried out in three independent experiments with three technical replicate each.
# For RAMP DNA titration assay, HEK293T cells were cotransfected with a constant amount of 1 pg/cell of FLAG-MRGPRX4-GFP10-1D4 to which a serial dilution of 1, 0.75, 0.5, 0.25, or 0 pg/cell of each HA-RAMP-OLLAS was added. For a homogenous transfection of MRGPRX4, a master mix of MRGPRX4 DNA was made prior to addition of the RAMP DNA. […]
# Data reduction, standard calibration, and transformation of HTRF data were performed as previously described ([51]). Normalized IP1 values were calculated relative to the unstimulated mock-transfected cells (set to 0%) and fully stimulated MRGPRX4 (alone if applicable) (set to 100%).
# [1] = test system: mock-transfected HEK293T cells; test: IP1 accumulation, mock-transfected cells; assay type: cell-based, human; design: IP1 Basal / IP1 span / IP1 Emax / IP1 accumulation, dose-response (Figure 1a) / IP1 accumulation with YM (Figure 1c) / IP1 accumulation: unit not given here; conditions: for IP1 accumulation, dose-response (Figure 1a): pcDNA (mock), individual replicates; for IP1 accumulation: mock, Fig S3a-c
# MRGPRX4 [2] = target: T2, MRGPRX4 (Homo sapiens, UniProt Q96LA9); test: BRET2 β-arrestin1 recruitment to MRGPRX4; assay type: cell-based; conditions: for net BRET2 ratio, βArr1 recruitment: Fig 5a, 100µM ligand, replicate values, listed as Ng
# T2 construct: expressed in transfected cells; host or cells: HEK293T
# T2 sequence (Q96LA9 whole entry): as above
# Experimental: (§1) The method for homogenous transfection of β-Arrestin and BRET^2 assay of β-Arrestin recruitment has been described previously ([51]). […] BRET^2 measurements were taken on the BioTek Synergy NEO2 microplate reader.
# (§2) For MRGPRX4 DNA titration assays, HEK293T cells were cotransfected with either β-Arrestin1 or β-Arrestin2 with increasing amounts of MRGPRX4 (0.5, 1, or 2 pg/cell).
# (§3) The BRET ratio for each sample was determined by calculating the ratio of the light intensity emitted by the GFP10 (515 nm) (acceptor) over the light intensity emitted by the RLuc3 (395 nm) (donor). Net BRET^2 was determined by subtracting the basal BRET^2 (β-arrestin-RLuc3 only) signal from the BRET^2 signals. All BRET values were normalized to the MRGPRX4-only condition.
# MRGPRX4 [3] = target: T2, MRGPRX4; test: BRET2 β-arrestin2 recruitment to MRGPRX4; assay type: cell-based; conditions: for net BRET2 ratio, βArr2 recruitment: Fig 5b, 100µM ligand, replicate values; for net BRET2 ratio, βArr2 recruitment / BRET2 ratio: listed as Ng; for BRET2 ratio: Fig 5c, MRGPRX4, 100μM ligand
# Source text: as §1, §2
# To measure the time-course of β-Arrestin2 recruitment to MRGPRX4 and CALCRL, the transfection and general procedure described above was followed, with the modification that Prolume Purple was added first, followed by addition of the appropriate agonists ([51]).
# as §3
# [4] = Tet-On MRGPRX4:RAMP3 Ratio 1:0.75 (Fig. S5F)
# [5] = Tet-On MRGPRX4:RAMP3 Ratio 1:1 (Fig. S5F)
structure (smiles),measurement,setting,value
CC(C)[C@H]1CC[C@H](C(=O)N[C@H](Cc2ccccc2)C(=O)O)CC1 [Nateglinide],IP1 Basal,MRGPRX4 + RAMP3; [4],8.392
same,IP1 span (top minus basal of the concentration-response fit),MRGPRX4 + RAMP3; [4],72.2%
same,EC50,MRGPRX4 + RAMP3; [4],7.11 µM
same,Emax,MRGPRX4 + RAMP3; [4],80.5%
same,IP1 Basal,MRGPRX4 + RAMP3; [5],9.885
same,IP1 span (top minus basal of the concentration-response fit),MRGPRX4 + RAMP3; [5],71.3%
same,EC50,MRGPRX4 + RAMP3; [5],8.79 µM
same,Emax,MRGPRX4 + RAMP3; [5],81.2%
same,IP1 accumulation (normalized),MRGPRX4 + RAMP3; log [nateglinide] (M) -4,57.5355 and 90.9736 and 62.9483
same,IP1 accumulation (normalized),MRGPRX4 + RAMP3; log [nateglinide] (M) -4.69897,50.3774 and 62.0079 and 49.4001
same,IP1 accumulation (normalized),MRGPRX4 + RAMP3; log [nateglinide] (M) -5.39794,23.5136 and 36.2384 and 24.8216
same,IP1 accumulation (normalized),MRGPRX4 + RAMP3; log [nateglinide] (M) -6.09691,12.0843 and 16.5706 and 10.8044
same,IP1 accumulation (normalized),MRGPRX4 + RAMP3; log [nateglinide] (M) -7.49485,6.988 and 11.3646 and 7.305
same,"IP1 accumulation, dose-response (Figure 1a)",[1]; log [agonist] (M) -4,0.2271 and 0.3078 and 0.4629 and -0.5571 and 0.3306 and 0.0456 and 0.8656 and -0.04322 and 0.1347 and -0.9843 and -0.02794 and -0.8867
same,"IP1 accumulation, dose-response (Figure 1a)",[1]; log [agonist] (M) -4.95424,0.4814 and 0.1593 and 0.9731 and 0.2847 and 0.3905 and 0.01267 and 0.9879 and -0.1469 and 0.1915 and -0.5702 and -0.3086 and -0.9418
same,"IP1 accumulation, dose-response (Figure 1a)",[1]; log [agonist] (M) -5.90849,0.6831 and 0.2899 and 0.8301 and 0.7307 and 0.1868 and 0.3562 and 0.4874 and 0.05414 and 0.7331 and -0.7448 and -0.08445 and -0.6788
same,"IP1 accumulation, dose-response (Figure 1a)",[1]; log [agonist] (M) -6.86273,1.046 and 0.7412 and 1.424 and 1.025 and 0.6018 and 0.6703 and 1.266 and 0.6126 and 1.453 and 0.03754 and 0.2747 and 0.1665
same,IP1 accumulation,[1]; log [Nateglinide] (M) -4,1.284 and 1.14
same,IP1 accumulation,[1]; log [Nateglinide] (M) -4.69897,0.9537 and 0.9999 and 1.07
same,normalized IP1 accumulation,"[1]; pcDNA, log [agonist] (M) -5.39794",0.47 and 0.5436 and 0.4562
same,β-arrestin1 recruitment to MRGPRX4,MRGPRX4 [2]; 100 μM agonist (Fig. 5A),very low β-arrestin1 recruitment
same,"net BRET2 ratio, βArr1 recruitment","MRGPRX4 [2]; MRGPRX4 20ng, 0.5 pg DNA/cell",0.001598 and 0.001911 and 0.001766 and 0.001511 and 0.001907 and 0.001761 and 0.001482 and 0.001441 and 0.001223 and 0.001859 and 0.001157 and 0.001231 and 0.00136 and 0.0008839 and 0.000388 and 0.001053 and 0.001203 and 0.000951 and 0.0007681 and 0.0005323 and 0.0008933 and 0.0008719 and 0.001239 and 0.001046 and 0.001091
same,"net BRET2 ratio, βArr1 recruitment","MRGPRX4 [2]; MRGPRX4 40ng, 1 pg DNA/cell",0.001875 and 0.002517 and 0.002385 and 0.001913 and 0.002075 and 0.001709 and 0.001872 and 0.002414 and 0.002488 and 0.001826 and 0.002129 and 0.001258 and 0.0007412 and 0.002042 and 0.001771 and 0.001548 and 0.001966 and 0.0009568 and 0.001828 and 0.001183 and 0.001043 and 0.001073 and 0.0007023 and 0.00193 and 0.002589 and 0.001421 and 0.00209
same,"net BRET2 ratio, βArr1 recruitment","MRGPRX4 [2]; MRGPRX4 80ng, 2 pg DNA/cell",0.002996 and 0.002474 and 0.002377 and 0.001821 and 0.003223 and 0.002725 and 0.001839 and 0.003232 and 0.002812 and 0.002723 and 0.003057 and 0.001936 and 0.00205 and 0.002139 and 0.001864 and 0.00174 and 0.001944 and 0.002317 and 0.002724
same,"net BRET2 ratio, βArr1 recruitment","MRGPRX4 [2]; βArr1 only, 0 pg MRGPRX4 DNA/cell",0.0003439 and -7.335e-5 and -0.0002706 and -9.392e-5 and -0.0001296 and 0.0002236 and -2.118e-6 and -0.0001045 and 0.0001067 and 0.000324 and -0.0001421 and -0.0001819 and 0.0002245 and -0.0001005 and -0.000124 and -9.463e-5 and 0.0003743 and -0.0002797 and -0.0002549 and 6.253e-5 and 0.0001923 and 0.0001254 and -0.000481 and 0.0003557 and 0.0001817 and -2.148e-5 and -0.0001602
same,β-arrestin2 recruitment to MRGPRX4,"MRGPRX4 [3]; 100 μM agonist (Fig. 5B, C)",recruited β-arrestin2 more strongly than β-arrestin1
same,"net BRET2 ratio, βArr2 recruitment","MRGPRX4 [3]; MRGPRX4 20ng, 0.5 pg DNA/cell",0.01059 and 0.011 and 0.01083 and 0.009137 and 0.01004 and 0.009779 and 0.007885 and 0.007959 and 0.007875 and 0.009405 and 0.008616 and 0.00928 and 0.007811 and 0.00797 and 0.009994 and 0.008653 and 0.00706 and 0.007614 and 0.007209 and 0.007504 and 0.007132 and 0.006566 and 0.006348 and 0.007157 and 0.004522 and 0.007759 and 0.005207
same,"net BRET2 ratio, βArr2 recruitment","MRGPRX4 [3]; MRGPRX4 40ng, 1 pg DNA/cell",0.01411 and 0.01341 and 0.01314 and 0.01164 and 0.01153 and 0.01104 and 0.009585 and 0.009093 and 0.008671 and 0.0118 and 0.009621 and 0.01107 and 0.01117 and 0.01052 and 0.009545 and 0.01099 and 0.00914 and 0.009334 and 0.008409 and 0.01062 and 0.01019 and 0.008186 and 0.008003 and 0.007557 and 0.007525 and 0.005338 and 0.009291
same,"net BRET2 ratio, βArr2 recruitment","MRGPRX4 [3]; MRGPRX4 80ng, 2 pg DNA/cell",0.01501 and 0.01563 and 0.01506 and 0.0134 and 0.0136 and 0.01318 and 0.01149 and 0.0115 and 0.01095 (2×) and 0.01387 and 0.01159 and 0.01257 and 0.01157 and 0.01276 and 0.01058 and 0.009957 and 0.009364 and 0.01169
same,"net BRET2 ratio, βArr2 recruitment","MRGPRX4 [3]; βArr2 only, 0 pg MRGPRX4 DNA/cell",0.0002584 and -0.0001954 and -6.2982e-5 and -0.0001775 and 0.0006514 and -0.0004739 and -9.3811e-5 and 0.0004305 and -0.0003367 and -6.4621e-5 and -0.0005147 and 0.0005793 and -0.0001286 and 0.0001629 and -3.4338e-5 and 0.0006863 and -0.0005797 and -0.0001066 and -6.7124e-5 and 1.05e-5 and 5.6622e-5 and 0.0001307 and -0.0006572 and 0.0005265 and 0.0006391 and 0.0003062 and -0.0009453
same,BRET2 ratio,MRGPRX4 [3]; 60 s,0.01411 and 0.01234 and 0.0129
same,BRET2 ratio,MRGPRX4 [3]; 120 s,0.01624 and 0.01368 and 0.01342
